# Measured values taken from paper PMC11729550, “Discovery of indole analogue Tc3 as a potent pyroptosis inducer and identification of its combination strategy against hepatic carcinoma” (Theranostics, 2025).
# Assays:
# shDFNA5 HepG2 cells = test: Dose-response growth inhibition, GSDME knockdown cells; assay type: cell-based; settings: Homo sapiens
# Protocol: (§1) The cells were counted with hemocytometer.
# Briefly, the pLKO.1 or shRNA plasmids with psPAX2 and PMD2.G were transfected into HEK-293T cells via DNA transfection reagent (SignaGen®Laboratories, SL100688). And the cell supernatant contained Lenti-virus was collected after 24 hours. The Lenti-virus of shRNAs were used to infect the hepatic carcinoma cells and the stable-transfection cell lines were screened by puromycin (1 μg/mL) (Solarbio, P8230).
# PERK = test: Western blot of ER stress responders; assay type: cell-based, human; settings: HepG2 and SK-Hep1 cells
# Protocol: (§2) The whole-cell protein was extracted by RIPA lysis buffer contained with protease and phosphatase inhibitor cocktail (MCE, HY-K0010) from cells treated by indole analogues. Proteins were separated by sodium dodecyl sulfate-polyacrylamide gel electrophoresis (SDS-PAGE) gel, and then blotted onto polyvinylidene difluoride membrane (Millipore, IPVH00010). The membranes were incubated with the primary antibodies and the following horseradish peroxidase-conjugated (HRP) secondary antibodies. Next, membranes were washed and developed by ECL regent (Millipore, WBKLS0500).
# PLC-PRF5 cells = test: Anti-tumor activity assay (IC50 value), cells counted after three days; assay type: cell-based; settings: Homo sapiens, PLC-PRF-5, 72 h
# Source text: as §1
# HepG2 cells [1] = test: RNA sequencing analysis; assay type: cell-based, human; settings: HepG2, 4 μM, 24h, versus DMSO
# Protocol: HepG2 cells were treated with dimethyl sulfoxide (DMSO) or Tc3 (4 μM) for 24h. And the total RNA was isolated using TRIzol (Solarbio, R1100). Next, the samples were processed and the RNA libraries were constructed by APTBIO company (Shanghai, China). Paired-end reads were aligned to a reference genome index which created using HISAT2, with read assignments to each gene quantified with feature counts. Gene expression was quantified using Transcripts Per Million (TPM). We identified Differentially Expressed Genes (DEGs) using the DESeq2 package in R, defining DEGs as those with an absolute log2 fold change greater than 1 and an adjusted p-value less than 0.05. We performed Gene Ontology (GO) and KEGG pathway enrichment analyses using the "cluster Profiler" package in R. GO terms and KEGG pathways with an adjusted P-value less than 0.05 were statistically significant. Our results were visualized using the ggplot2 and fact extra packages in R.
# CD8^+ T cells = test: Fluorescence staining and flow cytometry of tumor-infiltrating cells; assay type: in vivo, C57 BL/6N mice; settings: Hepa1-6 CDXs, 10 mg/kg
# Protocol: The lymphocytes were isolated from the tumors and blocked by purified CD16/32 antibody. Next, the cells were stained with fluorescent-conjugated antibodies (FITC-CD11b, APC-F4/80, PE-CD86, Alexa Flour® 700-CD206, APC-Ly6G, FITC-CD45, APC-CD8a, Pacific Blue^TM-IFN-γ). The fluorescence intensity was measured by a FACS Calibur, and data were analyzed with FlowJo software.
# The mice tumor tissues were embedded into the OCT reagent and sliced into 10 μm sections via the freezing microtome. The sections were fixed by paraformaldehyde, blocked by 3% bovine serum albumin (BSA, Beyotime, ST2254), and incubated with the primary antibodies overnight. In the second day, the sections were incubated with the fluorescent‐conjugated antibodies and 4′,6‐diamidino‐2‐phenylindole (DAPI, Solarbio, C0065) for nuclei. The tissue fluorescent images were captured by a confocal microscope (Leica, TCS SP8) and analyzed by imageJ software.
# GSDME = test: Western blot of GSDME activation; assay type: cell-based, human; settings: HepG2 and SK-Hep1 cells
# Protocol: as §2
# HepG2 cells [2] = test: Anti-tumor activity assay (IC50 value), cells counted after three days;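 note: HepG2 cells exposed to a drug concentration series for 3 days, then counted with a hemocytometer, inhibition relative to untreated control cell number, IC50 obtained by curve fitting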
# Protocol: For half maximal inhibitory concentrations (IC50) analysis, the hepatic carcinoma cells (HepG2, SK-Hep1 and PLC-PRF5) were seeded in 24-well plates respectively, then treated with drugs at concentration gradient for three days. The cells were counted with hemocytometer. […] A is the cell quantity of the control group and B is the cell quantity of the drug treated group. The cell inhibition rate was transformed using its logarithm. And the drug IC50 value were calculated by Graphpad Prsim 9 software with curve fitting of the drug concentration and log (cell inhibition rate).
# HepG2 and SK-Hep1 cells = test: LDH release assay; assay type: cell-based, human; settings: 0-4 μM, three days
# Protocol: The hepatic carcinoma cells were seeded in 96-well plates and treated with indole analogues for three days. Of note, the compounds were added into DMEM medium supplemented with 1% FBS. The cellular supernatant was collected for LDH release detection by using LDH cytotoxicity assay kit (Beyotime, C0016). Statistical analysis was combined with the cell viability data tested by WST-1 cell proliferation and cytotoxicity assay kit (Beyotime, C0035).
# PRDX1 = test: Western blot of PRDX1; assay type: cell-based, human; settings: hepatic carcinoma cells
# Protocol: as §2
# [3] = Pharmacokinetic study of vein administration; assay type: in vivo; settings: Balb/c mice, intravenous 10 mg/kg
# Protocol: Chromatographic conditions employed an ultimate AQ-C18 column (2.1 mm × 50 mm, 5.0 μm) and its temperature was set to 40℃. The mobile phase consisted of methanol and 0.1% formic acid, with a gradient elution program: 0-0.01 min, methanol 15%, 0.01-2 min, methanol 95%, 2-3 min, methanol 15%. The flow rate was set to 0.6 mL/min, the elution time was 3 min and ESI-MS in negative mode MRM was used for quantitative analysis. Masslynx 4.1 software was used for data acquisition and instrument control.
# Stock solutions of Tc3 (1.0 mg/mL) and JBHDN (0.1 mg/mL) were prepared in methanol. A series of working solutions (5, 20, 100, 200, 800, 1000 and 2000 ng/mL) were added into blank mouse blood to prepare the standard curves. The JBHDN stock solution was diluted with 5% trichloroacetic acid-methanol to 100 ng/mL. In the same manner as the standard curve, quality control (QC) samples at 10 ng/mL, 450 ng/mL, and 1500 ng/mL were prepared. Next, Balb/c mice were administered intravenously (10 mg/kg). After 5 min, 15 min, 30 min, 1 h, 2 h, 4 h, 8 h, and 24 h, blood samples (20 μL) were collected from the tail vein of mice and mixed with internal standard JBHDN (100 ng/mL). The mixtures were then vortexed for 10 min at 4℃ and centrifuged at 5500 g for 10 min. The supernatant was mixed with 200 μL ultrapure water, and then injected into liquid chromatography-tandem mass spectrometry (LC-MS/MS) system for analysis.
# [4] = Hydrolytic stability in phosphate buffer (HPLC); assay type: physicochemical; settings: phosphate buffer of PH 7.4 over 150 minutes
# Protocol: The stability of Tc3 was evaluated by an UltiMate 3000 Dual-Gradient HPLC system (Sunnyvale, CA, USA). The samples of solution were chromatographed on ZORBAX Eclipse XDB-C18 column(5 µm, 4.6 × 150 mm, Agela Technologies), using an eluent composed of: water (95%) and acetonitrile (5%) at a flow rate of 1.0 mL/min. […] The hydrolysis of Tc3 was carried out in a phosphate buffer of PH 7.4 (50 ug/ml, initial concentration of 5 mM in methanol) over 150 minutes.
smiles,measurement,setting,value
CC(C)[C@H](N)C(=O)NCCCn1cc(/C=C2\S/C(=N\c3ccc(N4CCOCC4)cc3)N(Cc3ccc(F)cc3)C2=O)c2ccccc21 [Tc3],IC50,shDFNA5 HepG2 cells,4770 nM
same,PERK activation (western blotting),PERK,activated
same,IC50,PLC-PRF5 cells,1790 nM
same,Number of down-regulated gene,HepG2 cells [1],38
same,Number of up-regulated gene,HepG2 cells [1],182
same,number of DEGs,HepG2 cells [1],220
same,infiltration of activated CD8^+ T cells in tumors,CD8^+ T cells,significantly promoted
same,GSDME activation / cleavage (western blotting),GSDME,promoted the cleavage of GSDME
same,fold increase in cellular potency,"HepG2 cells [2]; HepG2, compared to T1",~12 fold
same,IC50,"HepG2 cells [2]; Homo sapiens, HepG2, 72 h, read-out: IC50 HepG2",1370 nM
same,LDH release levels,HepG2 and SK-Hep1 cells,highest LDH release
same,expression of PRDX1,PRDX1,obviously reduced
same,plasma drug concentration,[3]; 5 min-24 h,12.4 to 1417.0 ng/mL
same,AUC(0-t),"[3]; mouse, whole blood",1520 ng·h/mL
same,half-life,"[3]; mouse, whole blood, read-out: half-life elimination t1/2 (converted)",8.08 h
same,stability to hydrolysis,[4],no changes
